# Tests used:
# COX = COX inhibition; format: biochemical
# HT-29 cells [1] = test: HT-29 tumor cell growth inhibition, SRB assay; format: cell-based, human; design: Growth Inhibition: key to the marks not given beside the values; settings: for Growth inhibitory activity % Inhibition at 100 μM: 100 μM single dose
# [2] = system: HT-29 colon adenocarcinoma cells; test: Apoptosis by DNA fragmentation assay in HT-29 cells; format: cell-based, human
# cGMP-PDE = cGMP-PDE inhibition assay, enzyme from HT-29 cultured tumor cells; format: biochemical, human; settings: for cGMP PDE % Inhibition at 100 μM: 100 μM (test compounds)
# [3] = system: premalignant lesions in mouse mammary gland organ culture; test: Mammary gland organ culture model, DMBA-induced premalignant lesions; settings: for inhibition of formation of premalignant lesions: mammary gland organ culture
# Method: For example, female BALB/c mice can be treated with a combination of estradiol and progesterone daily, in order to prime the glands to be responsive to hormones in vitro. The animals are sacrificed and thoracic mammary glands are excised aseptically and incubated for ten days in growth media supplemented with insulin, prolactin, hydrocortisone, and aldosterone. DMBA (7,12-dimethylbenz(a)anthracene) is added to medium to induce the formation of premalignant lesions. Fully developed lands are then deprived of prolactin, hydrocortisone, and aldosterone, resulting in the regression of the glands but not the pre malignant lesions.
# The test compound is dissolved in DMSO and added to the culture media for the duration of the culture period. At the end of the culture period, the glands are fixed in 10% formalin, stained with alum carmine, and mounted on glass slides. The extent of the area occupied by the mammary lesions can be quantitated by projecting an image of the gland onto a digitation pad. The area covered by the gland is traced on the pad and considered as 100% of the area. The space covered by each of the unregressed structures is also outlined on the digitization pad and quantitated by the computer.
# The incidence of forming mammary lesions is the ratio of the glands with mammary lesions to […]. The incidence of mammary lesions in test compound treated glands is compared with that of the untreated glands.
# Mammary gland organ culture experiments were performed as previously described (Mehta and Moon, Cancer Research, 46: 5832-5835, 1986). […] The data support the hypothesis that cyclooxygenase inhibition is not necessary for the anti-neoplastic properties of desired compounds.
# [4] = system: PDE peak B (novel cGMP-PDE); test: cGMP hydrolysis by PDE peak B isolated from SW-480 cells; format: biochemical, human
# [5] = reversible; cited from earlier work
# PDE peak A (PDE5) = target: T1, PDE peak A (PDE5) (Homo sapiens, UniProt O76074); test: cGMP hydrolysis by PDE peak A isolated from SW-480 cells; format: biochemical
# T1 construct: SW-480 cells are collected and homogenized; The homogenate is centrifuged, and the supernatant is loaded onto a DEAE-Trisacryl M column; endogenous in cells; host or cells: SW-480 human colon adenocarcinoma cells (DEAE-Trisacryl M fraction, peak A)
# HT-29 cells [6] = test: Apoptosis and necrosis by morphology (acridine orange/ethidium bromide) in HT-29 cells; format: cell-based, human; settings: 120 μM, time course
# Method: Growth inhibition (FIG. 9A, top) was measured by counting viable cells after trypan blue staining. Apoptosis (FIG. 9B, bottom) was measured by morphological determination following staining with acridine orange and ethidium bromide as described previously and Cohen, In: Current Protocols in Immunology, 3.17.1-3.17.16 New York, John Wiley and Sons, 1992). […] All data were collected from the same experiment.
# Following treatment with a test compound, cultures can be assayed for apoptosis and necrosis by fluorescent microscopy following labeling with acridine orange and ethidium bromide. […]
# Reference compounds and test compounds were analyzed for their cGMP-specific PDE inhibitory activity in accordance with the protocols for the assay, supra. […] Apoptotic and necrotic cell death was determined as previously described (Duke and Cohen, In: Current Protocols in Immunology, 3.17.1-3.17.16, New York. John Wiley and Sons, 1992). […]
# The apoptosis inducing activity for a series of phosphodiesterase inhibitors was determined. […] Apoptosis and necrosis were determined morphologically after acridine orange and ethidium bromide labeling in accordance with the assay described supra.
# HT-29 cells [7] = test: Cyclic nucleotide (cGMP, cAMP) levels in HT-29 cells by radioimmunoassay; format: cell-based, human; settings: HT-29 cells treated 30 minutes
# Method: The amount of PDE activity can be determined by assaying for the amount of cyclic GMP in the extract of treated cells using a radioimmunoassay (RIA). In this procedure, a neoplastic cell line is incubated with a test compound. […]
# It has been observed that a compound which is useful in the practice of this invention (i.e.. one that selectively induces apoptosis in neoplastic cells, but not substantially in normal cells) follows a time course consistent with cGMP-specific PDE inhibition. […] The intracellular targets of these drug actions are being studied further, but current data support the concert that the initial rise in cGMP content and the subsequent fall in cGMP content precede apoptosis in neoplastic cells exposed to test compounds useful in this invention. To determine the cyclic AMP content in cell extracts, radioimmunoassay techniques similar to those described above for cGMP are used.
compound,measurement,setting,value
"CCN(CC)CCSC12CC(=O)OC1(C)/C(=C/c1ccc(S(C)(=O)=O)cc1)c1ccc(F)cc12 (racemic) [A, rac-threo-(E)-1-(N,N′-diethylaminoethanethio)-1-(butan-1′,4′-olido)-[3′,4′:1,2]-6-fluoro-2-methyl-3-(p-methylsulfonylbenzylidene)-indan]",COX Inhibition,COX; activity profile,−
same,Growth inhibitory activity % Inhibition at 100 μM,HT-29 cells [1],68%
same,"Apoptosis inducing activity, Fold induction at 100 μM",[2]; 100 μM,<2.0 fold
same,cGMP PDE % Inhibition at 100 μM,cGMP-PDE,<25%
"CC(=O)N[C@@H](CSC12CC(=O)OC1(C)/C(=C/c1ccc(S(C)(=O)=O)cc1)c1ccc(F)cc12)C(=O)O (mixture of isomers) [D, rac-(E)-1-(butan-1′,4′-olide)-[3′,4′:1,2]-6-fluoro-2-methyl-3-(p-methylsulfonylbenzylidene)-1S-indanyl-N-acetylcysteine]",COX Inhibition,COX; activity profile,−
same,Mammary Gland Organ Culture,[3]; activity profile,−
same,Growth inhibitory activity % Inhibition at 100 μM,HT-29 cells [1],78%
same,Growth Inhibition,HT-29 cells [1]; activity profile,++
same,Apoptosis,[2]; activity profile,−
same,PDE Inhibition,cGMP-PDE; activity profile,−
"CC1=C(CC(=O)O)c2cc(F)ccc2/C1=C\c1ccc(Cl)cc1 [C, (Z)-5-Fluoro-2-methyl-1-(p-chlorobenzylidene)-3-acetic acid]",Growth inhibitory activity % Inhibition at 100 μM,HT-29 cells [1],80%
"COc1cc(C=C2C(C)=C(CC(=O)O)c3cc(F)ccc32)cc(OC)c1OC [Compound B, (Z)-5-Fluoro-2-methyl-1-(3,4,5-trimethoxybenzylidene)-3-acetic acid]",COX Inhibition,COX; 100 μM,did not inhibit COX
same,COX Inhibition,COX; activity profile,−
same,cGMP PDE % Inhibition at 100 μM,cGMP-PDE,<25%
O=C([O-])C1CCN(c2nc(NCc3ccc4c(c3)OCO4)c3cc(Cl)ccc3n2)CC1.[Na+] [Compound E4021],growth inhibition of neoplastic cells,HT-29 cells [1],do not have significant apoptosis-inducing (Table 6) or growth-inhibiting
same,Growth inhibitory activity % Inhibition at 100 μM,HT-29 cells [1],<50%
same,apoptosis induction in neoplastic cells,[2],do not have significant apoptosis-inducing
same,sensitivity of the new cGMP-PDE (peak B) to inhibition,[4],relatively insensitive
"COc1cc(/C=C2/C(C)=C(CC(=O)NCc3ccccc3)c3cc(F)ccc32)cc(OC)c1OC [Compound E, (Z)-5-Fluoro-2-methyl-1-(3,4,5-trimethoxybenzylidene)-3-indenylacetamide, N-benzyl]",apoptosis induction in neoplastic cells,[2],induce apoptosis in neoplastic cells
"CC1=C(CC(=O)O)c2cc(F)ccc2/C1=C\c1ccc(S(C)(=O)=O)cc1 [Exisulind, (Z)-5-fluoro-2-methyl-1-[[4-(methylsulfonyl)phenyl]methylene]indene-3-yl acetic acid]",side effects at doses higher than the recommended therapeutic levels,[5],elevated levels of liver enzymes
same,inhibition of formation of premalignant lesions,[3],effectively inhibit the formation of premalignant lesions
same,inhibition of peak A / PDE5 activity,PDE peak A (PDE5),inhibits both PDES and the new cGMP-PDE
same,sensitivity of the new cGMP-PDE (peak B) to inhibition,[4],inhibits both PDES and the new cGMP-PDE
CC1(C)C(=O)Nc2ccc(C3=NNC(=O)CC3)cc21 [Indolidan],sensitivity of the new cGMP-PDE (peak B) to inhibition,[4],relatively insensitive
COc1ccc(C2CNC(=O)C2)cc1OC1CCCC1 (centres unmarked) [Rolipram],sensitivity of the new cGMP-PDE (peak B) to inhibition,[4],relatively insensitive
CCCc1nn(C)c2c(=O)[nH]c(-c3cc(S(=O)(=O)N4CCN(C)CC4)ccc3OCC)nc12 [Sildenafil],growth inhibition of neoplastic cells,HT-29 cells [1],do not have significant apoptosis-inducing (Table 6) or growth-inhibiting
same,inhibition of peak A / PDE5 activity,PDE peak A (PDE5),inhibited activity of peak A
same,apoptosis induction in neoplastic cells,[2],do not have significant apoptosis-inducing
CSc1ccc(/C=C2/C(C)=C(CC(=O)O)c3cc(F)ccc32)cc1 [Sulindac sulfide],"apoptosis, morphological determination",HT-29 cells [6],an increase in apoptosis
same,inhibition of formation of premalignant lesions,[3],inactive
same,apoptosis induction in neoplastic cells,[2],induce apoptosis in neoplastic cells
same,increase in levels of cGMP,HT-29 cells [7],greater than 50%
same,IC50,"HT-29 cells [7]; Homo sapiens, 0.5 h, read-out: IC50 value for increase of cGMP levels",7.3 µM
CCOC(=O)C1=C[C@]2(CC)CCCN3CCc4c(n1c1ccccc41)[C@@H]32 [Vinpocetine],sensitivity of the new cGMP-PDE (peak B) to inhibition,[4],relatively insensitive
CCCOc1ccccc1-c1nc2nn[nH]c2c(=O)[nH]1 [Zaprinast],growth inhibition of neoplastic cells,HT-29 cells [1],do not have significant apoptosis-inducing (Table 6) or growth-inhibiting
same,apoptosis induction in neoplastic cells,[2],do not have significant apoptosis-inducing
same,sensitivity of the new cGMP-PDE (peak B) to inhibition,[4],relatively insensitive
CC1=C(CC(=O)O)c2cc(F)ccc2/C1=C/c1ccc([S+](C)[O-])cc1 (centres unmarked) [sulindac sulfoxide],inhibition of formation of premalignant lesions,[3],effectively inhibit the formation of premalignant lesions
